According to article PMC8111447 (Frontiers in Pharmacology, 2021):

Tests used:
Assay in all cases: Kinase panel (Eurofins)
Type in all cases: biochemical
Settings in all cases: n = 2; for inhibition at 1 µM: at 1 μmol/L; for IC50: read-out: IC50 kinase inhibition
Itk(h) = biological target: T1, Itk(h) (Homo sapiens, UniProt Q08881)
T1 construct: purchased Eurofins
T1 sequence (Q08881 1-620): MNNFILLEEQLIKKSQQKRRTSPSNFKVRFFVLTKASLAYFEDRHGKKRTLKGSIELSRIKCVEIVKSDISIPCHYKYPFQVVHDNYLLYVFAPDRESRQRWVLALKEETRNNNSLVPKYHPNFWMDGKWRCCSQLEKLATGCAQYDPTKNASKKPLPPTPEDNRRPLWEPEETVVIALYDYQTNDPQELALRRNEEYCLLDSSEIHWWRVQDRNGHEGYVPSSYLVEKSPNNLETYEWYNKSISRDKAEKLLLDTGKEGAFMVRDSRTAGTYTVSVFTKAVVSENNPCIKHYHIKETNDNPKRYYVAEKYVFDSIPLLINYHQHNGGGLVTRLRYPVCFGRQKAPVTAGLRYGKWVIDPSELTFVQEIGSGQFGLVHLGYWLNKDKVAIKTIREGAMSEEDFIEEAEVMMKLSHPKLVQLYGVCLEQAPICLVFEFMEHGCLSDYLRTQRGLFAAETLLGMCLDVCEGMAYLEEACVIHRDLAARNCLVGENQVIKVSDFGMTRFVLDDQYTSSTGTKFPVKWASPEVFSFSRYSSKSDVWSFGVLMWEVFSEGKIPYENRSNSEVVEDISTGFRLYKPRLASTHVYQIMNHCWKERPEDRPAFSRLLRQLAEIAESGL
Description: (§1) These receptors have a methionine gatekeeper in their kinase domains, and are related to hyperglycemia in other clinical trials of EGFR TKI, such as Co-1686.

Flt3(h) = biological target: T2, Flt3(h) (Homo sapiens, UniProt P36888)
T2 construct: purchased Eurofins
T2 sequence (P36888 27-993): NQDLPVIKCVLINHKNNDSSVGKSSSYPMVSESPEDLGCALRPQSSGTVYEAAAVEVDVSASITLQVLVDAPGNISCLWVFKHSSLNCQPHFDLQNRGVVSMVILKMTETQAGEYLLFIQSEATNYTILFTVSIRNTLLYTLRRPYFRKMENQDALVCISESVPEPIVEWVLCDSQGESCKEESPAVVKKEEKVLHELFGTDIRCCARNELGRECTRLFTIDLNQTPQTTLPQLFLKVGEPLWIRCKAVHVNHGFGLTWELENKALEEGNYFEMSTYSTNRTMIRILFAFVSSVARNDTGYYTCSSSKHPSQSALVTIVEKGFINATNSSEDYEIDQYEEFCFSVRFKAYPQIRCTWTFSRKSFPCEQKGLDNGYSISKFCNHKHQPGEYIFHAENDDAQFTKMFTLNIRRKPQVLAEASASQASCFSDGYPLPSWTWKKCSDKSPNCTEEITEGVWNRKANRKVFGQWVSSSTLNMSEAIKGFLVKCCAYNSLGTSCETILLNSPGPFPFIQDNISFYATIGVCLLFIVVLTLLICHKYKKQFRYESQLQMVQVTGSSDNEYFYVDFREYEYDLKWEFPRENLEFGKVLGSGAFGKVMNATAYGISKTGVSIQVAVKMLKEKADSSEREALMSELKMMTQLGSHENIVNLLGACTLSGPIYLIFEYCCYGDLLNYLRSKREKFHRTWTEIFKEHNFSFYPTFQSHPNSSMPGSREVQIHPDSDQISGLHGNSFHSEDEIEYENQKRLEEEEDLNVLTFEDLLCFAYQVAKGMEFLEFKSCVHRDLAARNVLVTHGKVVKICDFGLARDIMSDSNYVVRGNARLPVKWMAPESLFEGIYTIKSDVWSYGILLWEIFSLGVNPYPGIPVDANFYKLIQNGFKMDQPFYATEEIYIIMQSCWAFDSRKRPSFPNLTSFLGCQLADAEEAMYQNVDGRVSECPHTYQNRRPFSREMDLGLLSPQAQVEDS
Description: as §1

Tec(h) activated = biological target: T3, Tec(h) activated (Homo sapiens, UniProt P42680)
T3 construct: purchased Eurofins
T3 sequence (P42680 1-631): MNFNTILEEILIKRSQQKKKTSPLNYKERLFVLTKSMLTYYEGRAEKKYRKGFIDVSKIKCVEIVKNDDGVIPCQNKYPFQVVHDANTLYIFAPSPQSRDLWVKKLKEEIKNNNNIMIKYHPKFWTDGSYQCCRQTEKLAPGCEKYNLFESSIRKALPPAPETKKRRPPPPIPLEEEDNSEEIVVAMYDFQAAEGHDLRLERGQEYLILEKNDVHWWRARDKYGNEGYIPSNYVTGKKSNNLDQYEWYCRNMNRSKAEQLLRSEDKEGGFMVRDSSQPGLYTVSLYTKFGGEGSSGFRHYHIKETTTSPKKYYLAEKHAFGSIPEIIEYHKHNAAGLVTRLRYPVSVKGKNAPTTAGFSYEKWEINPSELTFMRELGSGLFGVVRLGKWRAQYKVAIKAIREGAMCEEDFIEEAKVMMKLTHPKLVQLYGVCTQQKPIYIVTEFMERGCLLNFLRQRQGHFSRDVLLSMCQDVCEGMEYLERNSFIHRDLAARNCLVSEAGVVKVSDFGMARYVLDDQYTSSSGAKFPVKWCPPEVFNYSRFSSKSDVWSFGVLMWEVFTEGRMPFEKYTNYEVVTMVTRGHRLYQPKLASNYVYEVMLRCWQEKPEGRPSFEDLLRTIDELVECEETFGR
Description: as §1

MLCK(h) = biological target: T4, MLCK(h) (Homo sapiens, UniProt Q9H1R3)
T4 construct: purchased Eurofins
Description: as §1

IR(h), activated = biological target: T5, IR(h), activated (Homo sapiens, UniProt P06213)
T5 construct: purchased Eurofins
T5 sequence (P06213 28-1382): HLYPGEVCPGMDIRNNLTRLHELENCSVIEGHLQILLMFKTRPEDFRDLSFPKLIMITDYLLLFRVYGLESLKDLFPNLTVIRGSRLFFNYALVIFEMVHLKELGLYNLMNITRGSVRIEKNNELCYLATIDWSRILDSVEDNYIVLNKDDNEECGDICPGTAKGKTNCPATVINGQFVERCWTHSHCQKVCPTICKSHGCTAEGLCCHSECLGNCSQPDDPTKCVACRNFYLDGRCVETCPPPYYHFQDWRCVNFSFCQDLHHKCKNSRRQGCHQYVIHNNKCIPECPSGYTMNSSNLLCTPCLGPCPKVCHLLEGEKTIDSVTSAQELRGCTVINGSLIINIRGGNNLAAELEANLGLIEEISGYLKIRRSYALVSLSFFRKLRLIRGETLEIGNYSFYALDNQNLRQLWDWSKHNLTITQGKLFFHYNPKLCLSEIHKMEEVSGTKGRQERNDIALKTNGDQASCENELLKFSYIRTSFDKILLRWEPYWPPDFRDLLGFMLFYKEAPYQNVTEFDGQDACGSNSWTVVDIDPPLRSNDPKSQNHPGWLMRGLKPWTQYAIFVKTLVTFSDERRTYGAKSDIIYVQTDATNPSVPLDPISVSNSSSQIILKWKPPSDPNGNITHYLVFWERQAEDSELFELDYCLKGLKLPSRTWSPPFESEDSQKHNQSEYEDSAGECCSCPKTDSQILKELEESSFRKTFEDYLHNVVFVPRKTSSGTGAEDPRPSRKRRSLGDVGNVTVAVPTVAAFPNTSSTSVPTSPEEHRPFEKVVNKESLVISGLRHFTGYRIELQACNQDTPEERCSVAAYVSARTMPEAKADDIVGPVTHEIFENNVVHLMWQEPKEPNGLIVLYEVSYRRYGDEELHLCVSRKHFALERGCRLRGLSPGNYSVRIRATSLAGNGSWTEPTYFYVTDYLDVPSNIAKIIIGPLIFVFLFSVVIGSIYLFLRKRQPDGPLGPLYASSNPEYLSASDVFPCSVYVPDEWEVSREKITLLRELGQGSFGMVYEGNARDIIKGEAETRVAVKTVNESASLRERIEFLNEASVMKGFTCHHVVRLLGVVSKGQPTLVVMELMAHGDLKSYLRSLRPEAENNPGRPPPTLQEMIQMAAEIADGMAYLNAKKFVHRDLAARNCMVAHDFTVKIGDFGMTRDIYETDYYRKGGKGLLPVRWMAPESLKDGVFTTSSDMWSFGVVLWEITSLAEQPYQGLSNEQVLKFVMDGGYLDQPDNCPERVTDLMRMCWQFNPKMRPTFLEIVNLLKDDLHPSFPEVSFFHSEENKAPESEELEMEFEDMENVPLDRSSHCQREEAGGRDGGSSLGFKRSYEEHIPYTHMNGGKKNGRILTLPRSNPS
Description: as §1

Fer(h) = biological target: T6, Fer(h) (Homo sapiens, UniProt P16591)
T6 construct: purchased Eurofins
T6 sequence (P16591 whole entry): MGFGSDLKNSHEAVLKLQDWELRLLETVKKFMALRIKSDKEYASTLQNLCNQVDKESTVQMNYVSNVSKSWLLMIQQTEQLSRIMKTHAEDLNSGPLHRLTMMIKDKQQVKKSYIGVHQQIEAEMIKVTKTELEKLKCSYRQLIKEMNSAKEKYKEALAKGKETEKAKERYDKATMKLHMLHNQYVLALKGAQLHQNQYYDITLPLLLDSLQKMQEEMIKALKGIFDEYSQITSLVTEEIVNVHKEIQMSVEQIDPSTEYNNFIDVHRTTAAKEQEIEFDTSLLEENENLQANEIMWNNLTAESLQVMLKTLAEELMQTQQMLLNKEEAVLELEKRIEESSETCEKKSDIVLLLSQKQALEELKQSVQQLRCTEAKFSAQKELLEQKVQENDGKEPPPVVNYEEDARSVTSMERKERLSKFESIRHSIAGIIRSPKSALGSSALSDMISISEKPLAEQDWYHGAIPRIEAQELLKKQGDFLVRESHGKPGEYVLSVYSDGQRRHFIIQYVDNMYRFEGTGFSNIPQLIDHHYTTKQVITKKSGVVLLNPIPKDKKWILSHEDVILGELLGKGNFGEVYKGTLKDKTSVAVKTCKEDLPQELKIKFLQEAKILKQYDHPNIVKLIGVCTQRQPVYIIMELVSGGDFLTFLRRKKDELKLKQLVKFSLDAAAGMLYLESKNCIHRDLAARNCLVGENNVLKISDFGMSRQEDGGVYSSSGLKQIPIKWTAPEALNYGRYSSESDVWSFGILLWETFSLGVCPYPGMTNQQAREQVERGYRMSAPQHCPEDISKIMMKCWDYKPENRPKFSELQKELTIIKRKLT
Description: as §1

inhibition at 1 µM (Itk(h)) [%]	IC50 (Itk(h)) [nM]	inhibition at 1 µM (Flt3(h)) [%]	IC50 (Flt3(h)) [nM]	inhibition at 1 µM (Tec(h) activated) [%]	IC50 (Tec(h) activated) [nM]	inhibition at 1 µM (MLCK(h)) [%]	IC50 (MLCK(h)) [nM]	inhibition at 1 µM (IR(h), activated) [%]	IC50 (IR(h), activated) [nM]	inhibition at 1 µM (Fer(h)) [%]	IC50 (Fer(h)) [nM]	Structure (SMILES)
68	825	97	45	77	272	68	597	74	321	80	452	C=CC(=O)Nc1cc(Nc2nccc(-c3c4n(c5ccccc35)CCCC4)n2)c(OC)cc1N(C)CCNC [Imp3]
66	320	88	71	80	150	55	400	58	241	45	542	C=CC(=O)Nc1cc(Nc2nccc(-c3c4n(c5ccccc35)CCCC4)n2)c(OC)cc1N(C)CCN(C)C [SH-1028]
